The results in this text go back to patent US20080045537A1, “Chemical Compounds” (priority 2004, published 2008).

For the assay, the system named is HIV-1 IIIB (T-tropic, CXCR4 utilizing). The experiment in a line: HOS HIV-1 infectivity assay. The class given is cell-based. As to conditions: Human immunodeficiency virus 1, IIIB; as determined by the infectivity assay; strain not stated in Table 2; read-out: Activity Level. Here is the method:
Compounds were profiled against two HIV-1 viruses, the M-tropic (CCR5 utilizing) Ba-L strain and the T-tropic (CXCR4 utilizing) IIIB strain. Both viruses were propagated in human peripheral blood lymphocytes. Compounds were tested for there ability to block infection of the HOS cell line (expressing hCXCR4/hCCR5/hCD4/pHIV-LTR-luciferase) by either HIV-1 Ba-L or HIV-1 IIIB. Compound cytotoxicity was also examined in the absence of virus addition.
HOS cells (expressing hCXCR4/hCCR5/hCD4/pHIV-LTR-luciferase) were harvested and diluted in Dulbeccos modified Eagles media supplemented with 2% FCS and non-essential amino acid to a concentration of 60,000 cells/ml. The cells were plated into 96-well plates (100 ul per well) and the plates were placed in a tissue culture incubator (37° C.; 5% CO2/95% air) for a period of 24 h.
Subsequently, 50 ul of the desired drug solution (4 times the final concentration) was added to each well and the plates were returned to the tissue culture incubator (37° C.; 5% CO2/95% air) for 1 h. Following this incubation 50 ul of diluted virus was added to each well (approximately 2 million RLU per well of virus). The plates were returned to the tissue culture incubator (37° C.; 5% CO2/95% air) and were incubated for a further 96 h.
Following this incubation the endpoint for the virally infected cultures was quantified following addition of Steady-Glo Luciferase assay system reagent (Promega, Madison, Wis.). Cell viability or non-infected cultures was measured using a CellTiter-Glo luminescent cell viability assay system (Promega, Madison, Wis.). All luminescent readouts are performed on a Topcount luminescence detector (Packard, Meridien, Conn.).
On to `CN(Cc1nc2cc(C(N)=O)ccc2[nH]1)C1CCCc2cccnc21` (centres unmarked) [Example 37, 2-{[Methyl(5,6,7,8-tetrahydroquinolin-8-yl)amino]methyl}-1H-benzimidazole-5-carboxamide], for which the IC50 is below 100 nM.
Under `CN(Cc1nc2cc(C(=O)NCC3CCNCC3)ccc2[nH]1)C1CCCc2cccnc21` (centres unmarked) [Example 38, 2-{[Methyl(5,6,7,8-tetrahydroquinolin-8-yl)amino]methyl}-N-(piperidin-4-ylmethyl)-1H-benzimidazole-5-carboxamide] stands 500 to 10000 nM; under `CN(Cc1nc2cc(C(=O)NCc3cccnc3)ccc2[nH]1)C1CCCc2cccnc21` (centres unmarked) [Example 39, 2-{[Methyl(5,6,7,8-tetrahydro-8-quinolinyl)amino]methyl}-N-(3-pyridinylmethyl)-1H-benzimidazole-5-carboxamide], 500 to 10000 nM.
To `CN(Cc1nc2cc(C(=O)NCc3ccncc3)ccc2[nH]1)C1CCCc2cccnc21` (centres unmarked) [Example 40, 2-{[Methyl(5,6,7,8-tetrahydro-8-quinolinyl)amino]methyl}-N-(4-pyridinylmethyl)-1H-benzimidazole-5-carboxamide] belongs 500 to 10000 nM; to `CN(Cc1nc2cc(C(=O)NCC3CCCCC3)ccc2[nH]1)C1CCCc2cccnc21` (centres unmarked) [Example 41, N-(Cyclohexylmethyl)-2-{[methyl(5,6,7,8-tetrahydro-8-quinolinyl)amino]methyl}-1H-benzimidazole-5-carboxamide], 500 to 10000 nM; to `CN(Cc1nc2ccc(C(=O)N3CCC(CCN4CCCC4)CC3)cc2[nH]1)C1CCCc2cccnc21` (centres unmarked) [Example 42, N-Methyl-N-{[5-({4-[2-(1-pyrrolidinyl)ethyl]-1-piperidinyl}carbonyl)-1H-benzimidazol-2-yl]methyl}-5,6,7,8-tetrahydro-8-quinolinamine], 500 to 10000 nM.
To `CCN(Cc1nc2ccc(C(=O)NCCc3cncn3C)cc2[nH]1)C1CCCc2cccnc21` (centres unmarked) [Example 43, 2-{[ethyl(5,6,7,8-tetrahydro-8-quinolinyl)amino]methyl}-N-[2-(1-methyl-1H-imidazol-5-yl)ethyl]-1H-benzimidazole-5-carboxamide] belongs 100 to 500 nM; to `CCN(Cc1nc2cc(C(=O)NCCCCCN)ccc2[nH]1)C1CCCc2cccnc21` (centres unmarked) [Example 44, N-(5-Aminopentyl)-2-{[ethyl(5,6,7,8-tetrahydro-8-quinolinyl)amino]methyl}-1H-benzimidazole-5-carboxamide], 500 to 10000 nM; to `CCN(CC)CCN1CCN(C(=O)c2ccc3[nH]c(CN(CC)C4CCCc5cccnc54)nc3c2)CC1` (centres unmarked) [Example 46, N-{[5-({4-[2-(Diethylamino)ethyl]-1-piperazinyl}carbonyl)-1H-benzimidazol-2-yl]methyl}-N-ethyl-5,6,7,8-tetrahydro-8-quinolinamine], 500 to 10000 nM.
As for `CCN(Cc1nc2cc(C(=O)N3CCN(C)CC3)ccc2[nH]1)C1CCCc2cccnc21` (centres unmarked) [Example 48, N-Ethyl-N-({5-[(4-methyl-1-piperazinyl)carbonyl]-1H-benzimidazol-2-yl}methyl)-5,6,7,8-tetrahydro-8-quinolinamine], the IC50 lay in the range of 100 to 500 nM.
`CCN(Cc1nc2cc(C(=O)N(C)CCN(C)C)ccc2[nH]1)C1CCCc2cccnc21` (centres unmarked) [Example 49, N-[2-(Dimethylamino)ethyl]-2-{[ethyl(5,6,7,8-tetrahydro-8-quinolinyl)amino]methyl}-N-methyl-1H-benzimidazole-5-carboxamide]: the IC50 fell in the range of 500 to 10000 nM.
Under `CCN(Cc1nc2cc(C(=O)NCCN(C)C)ccc2[nH]1)C1CCCc2cccnc21` (centres unmarked) [Example 50, N-[2-(Dimethylamino)ethyl]-2-{[ethyl(5,6,7,8-tetrahydro-8-quinolinyl)amino]methyl}-1H-benzimidazole-5-carboxamide] stands 100 to 500 nM; under `CNCCN(C)C(=O)c1ccc2[nH]c(CN(C)C3CCCc4cccnc43)nc2c1` (centres unmarked) [Example 51, N-Methyl-N-[2-(methylamino)ethyl]-2-{[methyl(5,6,7,8-tetrahydro-8-quinolinyl)amino]methyl}-1H-benzimidazole-5-carboxamide], below 100 nM.
To `CN(C)CCNC(=O)c1ccc2[nH]c(CN(C)C3CCCc4cccnc43)nc2c1` (centres unmarked) [Example 52, N-[2-(Dimethylamino)ethyl]-2-{[methyl(5,6,7,8-tetrahydro-8-quinolinyl)amino]methyl}-1H-benzimidazole-5-carboxamide] belongs below 100 nM.
Under `CNCCNC(=O)c1ccc2[nH]c(CN(C)C3CCCc4cccnc43)nc2c1` (centres unmarked) [Example 53, N-[2-(Methylamino)ethyl]-2-{[methyl(5,6,7,8-tetrahydro-8-quinolinyl)amino]methyl}-1H-benzimidazole-5-carboxamide] stands below 100 nM.
As to `CN(Cc1nc2cc(C(=O)NCC(C)(C)CN)ccc2[nH]1)C1CCCc2cccnc21` (centres unmarked) [Example 54, N-(3-Amino-2,2-dimethylpropyl)-2-{[methyl(5,6,7,8-tetrahydro-8-quinolinyl)amino]methyl}-1H-benzimidazole-5-carboxamide], the IC50 lay within 100 to 500 nM.
Under `CN(C)CCN(C)C(=O)c1ccc2[nH]c(CN(C)C3CCCc4cccnc43)nc2c1` (centres unmarked) [Example 55, N-[2-(Dimethylamino)ethyl]-N-methyl-2-{[methyl(5,6,7,8-tetrahydro-8-quinolinyl)amino]methyl}-1H-benzimidazole-5-carboxamide] stands below 100 nM.
In the case of `CN(Cc1nc2cc(C(=O)N3CCN(C(=O)OCc4ccccc4)CC3)ccc2[nH]1)C1CCCc2cccnc21` (centres unmarked) [Example 56, Phenylmethyl 4-[(2-{[methyl(5,6,7,8-tetrahydro-8-quinolinyl)amino]methyl}-1H-benzimidazol-5-yl)carbonyl]-1-piperazinecarboxylate], the IC50 was 500 to 10000 nM.
Under `CN(Cc1nc2cc(C(=O)N3CCNCC3)ccc2[nH]1)C1CCCc2cccnc21` (centres unmarked) [Example 57, N-Methyl-N-{[5-(1-piperazinylcarbonyl)-1H-benzimidazol-2-yl]methyl}-5,6,7,8-tetrahydro-8-quinolinamine] stands 500 to 10000 nM.
To `CN1CCN(C(=O)c2ccc3[nH]c(CN(C)C4CCCc5cccnc54)nc3c2)CC1` (centres unmarked) [Example 58, N-Methyl-N-({5-[(4-methyl-1-piperazinyl)carbonyl]-1H-benzimidazol-2-yl}methyl)-5,6,7,8-tetrahydro-8-quinolinamine] belongs 100 to 500 nM; to `CN(Cc1nc2cc(C(=O)N3CCN(Cc4ccccc4)CC3)ccc2[nH]1)C1CCCc2cccnc21` (centres unmarked) [Example 59, N-Methyl-N-[(5-{[4-(phenylmethyl)-1-piperazinyl]carbonyl}-1H-benzimidazol-2-yl)methyl]-5,6,7,8-tetrahydro-8-quinolinamine], 500 to 10000 nM; to `CN(Cc1nc2cccc(C(=O)NCCCCCN)c2[nH]1)C1CCCc2cccnc21` (centres unmarked) [Example 61, N-(5-Aminopentyl)-2-{[methyl(5,6,7,8-tetrahydro-8-quinolinyl)amino]methyl}-1H-benzimidazole-4-carboxamide], 100 to 500 nM.
Under `CN(Cc1nc2cccc(C(=O)N3CCN(Cc4ccccc4)CC3)c2[nH]1)C1CCCc2cccnc21` (centres unmarked) [Example 62, N-Methyl-N-[(4-{[4-(phenylmethyl)-1-piperazinyl]carbonyl}-1H-benzimidazol-2-yl)methyl]-5,6,7,8-tetrahydro-8-quinolinamine] stands 500 to 10000 nM.
Turning to `COCCNC(=O)c1cccc2nc(CN(C)C3CCCc4cccnc43)[nH]c12` (centres unmarked) [Example 64, N-[2-(Methyloxy)ethyl]-2-{[methyl(5,6,7,8-tetrahydro-8-quinolinyl)amino]methyl}-1H-benzimidazole-4-carboxamide], the IC50 lay within 500 to 10000 nM.
Under `CN(Cc1nc2c(C(=O)NCCc3cncn3C)cccc2[nH]1)C1CCCc2cccnc21` (centres unmarked) [Example 67, N-[2-(1-methyl-1H-imidazol-5-yl)ethyl]-2-{[methyl(5,6,7,8-tetrahydro-8-quinolinyl)amino]methyl}-1H-benzimidazole-4-carboxamide] stands 100 to 500 nM; under `CN(Cc1nc2c(C(=O)N3CCN(Cc4ccccn4)CC3)cccc2[nH]1)C1CCCc2cccnc21` (centres unmarked) [Example 68, N-Methyl-N-[(4-{[4-(2-pyridinylmethyl)-1-piperazinyl]-carbonyl}-1H-benzimidazol-2-yl)methyl]-5,6,7,8-tetrahydro-8-quinolinamine], 500 to 10000 nM.
For the molecule `CN(Cc1nc2c(C(=O)NCCc3cccnc3)cccc2[nH]1)C1CCCc2cccnc21` (centres unmarked) [Example 69, 2-{[Methyl(5,6,7,8-tetrahydro-8-quinolinyl)amino]methyl}-N-[2-(3-pyridinyl)ethyl]-1H-benzimidazole-4-carboxamide], the IC50 was 500 to 10000 nM.
To `CN(Cc1nc2c(C(=O)NCCc3ccncc3)cccc2[nH]1)C1CCCc2cccnc21` (centres unmarked) [Example 71, 2-{[Methyl(5,6,7,8-tetrahydro-8-quinolinyl)amino]methyl}-N-[2-(4-pyridinyl)ethyl]-1H-benzimidazole-4-carboxamide] belongs 500 to 10000 nM; to `CN1CCN(CCCNC(=O)c2cccc3[nH]c(CN(C)C4CCCc5cccnc54)nc23)CC1` (centres unmarked) [Example 73, N-[3-(4-Methyl-1-piperazinyl)propyl]-2-{[methyl(5,6,7,8-tetrahydro-8-quinolinyl)amino]methyl}-1H-benzimidazole-4-carboxamide], 100 to 500 nM.
